Experimental data published in patent EP0745595A1, “3-(3-Aryloxyphenyl)-1-(substituted methyl)-s-triazine-2,4,6-oxo or thiotrione herbicidal agents” (American Cyanamid Company, priority 1995, dated 1996).

Assays:
Assay type in all cases: in vivo
[1] = test system: ABUTILON THEOPHRASTI, MEDIC.; test: Postemergence herbicidal evaluation, ABUTH (Velvetleaf)
Protocol: (§1) In the tests, seedling plants are grown in jiffy flats for about two weeks. The test compounds are dispersed in 50/50 acetone/water mixtures containing 0.5% TWEEN®20, a polyoxyethylene sorbitan monolaurate surfactant of Atlas Chemical Industries, […] to the plants through a spray nozzle operating at 40 psi for a predetermined time. After spraying, the plants are placed on greenhouse benches and are cared for in the usual manner, commensurate with conventional greenhouse practices. From four to five weeks after treatment, the seedling plants are examined and rated according to the rating system set forth below. Where more than one test is involved for a given compound, the data are averaged.
(§2) Plant species employed in these evaluations are reported by header abbreviation, common name and scientific name.
(§3) Results of herbicide evaluation are expressed on a rating scale (0-9). The scale is based upon a visual observation of plant stand, vigor, malformation, size, chlorosis and overall plant appearance as compared with a control.

[2] = test system: AMBROSIA ARTEMISIIFOLIA, L.; test: Postemergence herbicidal evaluation, AMBEL (Ragweed, Common)
Protocol: as §1, §2, §3

[3] = test system: CHENOPODIUM ALBUM, L.; test: Postemergence herbicidal evaluation, CHEAL (Lambsquarters, Common)
Protocol: as §1, §2, §3

[4] = test system: IPOMOEA SPP.; test: Postemergence herbicidal evaluation, IPOSS (Morningglory spp.)
Protocol: as §1, §2, §3

[5] = test system: ECHINOCHLOA CRUS-GALLI, (L) BEAU; test: Postemergence herbicidal evaluation, ECHCG (Barnyardgrass); parameters: key to ECHCG rating / Herbicidal effect rating, ECHCG / ECHCG: 0-9 visual rating scale vs untreated control
Protocol: (§4) In the tests, seedling plants are grown in jiffy flats for about two weeks. The test compounds are dispersed in 50/50 acetone/water mixtures containing 0.5% TWEEN®20, a polyoxyethylene sorbitan monolaurate surfactant of Atlas Chemical Industries, in sufficient quantities to provide the equivalent of about 0.125 kg to 0.500 kg per hectare of active compound when applied to the plants through a spray nozzle operating at 40 psi for a predetermined time. After spraying, the plants are placed on greenhouse benches and are cared for in the usual manner, commensurate with conventional greenhouse practices. From four to five weeks after treatment, the seedling plants are examined and rated according to the rating system set forth below. Where more than one test is involved for a given compound, the data are averaged.
as §2, §3

[6] = test system: SETARIA VIRIDIS, (L) BEAU; test: Postemergence herbicidal evaluation, SETVI (Foxtail, Green); parameters: key to SETVI rating / Herbicidal effect rating, SETVI / SETVI: 0-9 visual rating scale vs untreated control
Protocol: as §4, §2, §3

[7] = test system: GLYCINE MAX(L) MERR. CV. WILLIAMS; test: Postemergence herbicidal evaluation, GLXMAW (Soybean, Williams); parameters: key to GLXMAW rating / Herbicidal effect rating, GLXMAW / GLXMAW: 0-9 visual rating scale vs untreated control
Protocol: as §4, §2, §3

[8] = test system: ZEA MAYS L.; test: Postemergence herbicidal evaluation, ZEAMX (Corn, Field)
Protocol: as §1, §2, §3

[9] = test system: CHENOPODIUM ALBUM, L.; test: Preemergence herbicidal evaluation, CHEAL (Lambsquarters, Common);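 note: higher means more injury with 8 approaching complete kill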
Excerpt: as §3
The preemergence herbicidal activity of the test compounds of the present invention is exemplified by the following tests in which the seeds of a variety of monocotyledonous and dicotyledonous plants are separately mixed with potting soil and planted on top of approximately one inch of soil in separate pint cups. […] The treated cups are then placed on greenhouse benches, watered and cared for in accordance with conventional greenhouse procedures. From four to five weeks after treatment, the tests are terminated and each cup is examined and rated according to the rating system provided in Example 40.
The compounds evaluated are reported by compound number given in Example 40.

SMILES: Cn1c(=O)[nH]c(=O)n(-c2cc(Oc3c(F)cc(C(F)(F)F)cc3Cl)ccc2Br)c1=O [A, reference compound]
- Herbicidal effect rating, ABUTH ([1]; 0.063 kg/ha): 5.0
- Herbicidal effect rating, ABUTH ([1]; 0.125 kg/ha): 6.0
- Herbicidal effect rating, ABUTH ([1]; 0.250 kg/ha): 6.0
- Herbicidal effect rating, ABUTH ([1]; 0.500 kg/ha): 9.0
- Herbicidal effect rating, AMBEL ([2]; 0.063 kg/ha): 1.0
- Herbicidal effect rating, AMBEL ([2]; 0.125 kg/ha): 2.0
- Herbicidal effect rating, AMBEL ([2]; 0.500 kg/ha): 5.0
- Herbicidal effect rating, CHEAL ([3]; 0.063 kg/ha): 9.0
- Herbicidal effect rating, CHEAL ([3]; 0.125 kg/ha): 9.0
- Herbicidal effect rating, CHEAL ([3]; 0.250 kg/ha): 9.0
- Herbicidal effect rating, CHEAL ([3]; 0.500 kg/ha): 9.0
- Herbicidal effect rating, IPOSS ([4]; 0.063 kg/ha): 6.0
- Herbicidal effect rating, IPOSS ([4]; 0.125 kg/ha): 7.0
- Herbicidal effect rating, IPOSS ([4]; 0.250 kg/ha): 9.0
- Herbicidal effect rating, IPOSS ([4]; 0.500 kg/ha): 9.0
- Herbicidal effect rating, ECHCG ([5]; 0.063 kg/ha): 0.0
- Herbicidal effect rating, ECHCG ([5]; 0.125 kg/ha): 0.0
- Herbicidal effect rating, ECHCG ([5]; 0.250 kg/ha): 2.0
- Herbicidal effect rating, ECHCG ([5]; 0.500 kg/ha): 2.0
- Herbicidal effect rating, SETVI ([6]; 0.063 kg/ha): 0.0
- Herbicidal effect rating, SETVI ([6]; 0.125 kg/ha): 2.0
- Herbicidal effect rating, SETVI ([6]; 0.250 kg/ha): 2.0
- Herbicidal effect rating, SETVI ([6]; 0.500 kg/ha): 5.0
- Herbicidal effect rating, GLXMAW ([7]; 0.063 kg/ha): 2.0
- Herbicidal effect rating, GLXMAW ([7]; 0.125 kg/ha): 3.0
- Herbicidal effect rating, GLXMAW ([7]; 0.250 kg/ha): 3.0
- Herbicidal effect rating, GLXMAW ([7]; 0.500 kg/ha): 5.0
- Herbicidal effect rating, ZEAMX ([8]; 0.063 kg/ha): 0.0
- Herbicidal effect rating, ZEAMX ([8]; 0.125 kg/ha): 0.0
- Herbicidal effect rating, ZEAMX ([8]; 0.250 kg/ha): 0.0
- Herbicidal effect rating, ZEAMX ([8]; 0.500 kg/ha): 2.0
- CHEAL ([9]; Rate 0.063 kg/ha): 9.0
- CHEAL ([9]; Rate 0.125 kg/ha): 9.0
- CHEAL ([9]; Rate 0.250 kg/ha): 9.0
- CHEAL ([9]; Rate 0.500 kg/ha): 9.0
